In ChEMBL document CHEMBL1157539, “Thousands of chemical starting points for antimalarial lead identification” (Nature, 2010):

The molecules below were run on Plasmodium falciparum (assay: GSK_TCMDC: Inhibition of Plasmodium falciparum 3D7 in whole erythrocytes, using parasite LDH activity as an index of growth.). Conditions: Plasmodium falciparum, 3D7.
Format: functional, organism-based

Row | Structure (SMILES) | XC50
1 | CCOc1cc(/C=N/Nc2nc3ccccc3[nH]2)ccc1OCc1ccc([N+](=O)[O-])cc1 | 995 nM
2 | CCOc1c(CNCCCNc2cc(O)c3ccccc3n2)cc(I)cc1OC | 1170 nM
3 | CCN1CCC(N(Cc2ccc(-c3ccc(C(F)(F)F)s3)cc2)C(=O)Cn2c(CCc3cccc(F)c3F)nc(=O)c3ccccc32)CC1 | 932 nM
4 | CCN(CC)CCN(Cc1ccc(-c2ccc(C(F)(F)F)cc2)cc1)C(=O)Cn1c(SCc2ccc(F)cc2)cc(=O)c2ccccc21 | 752 nM
5 | CCN(CC)CCN(Cc1ccc(-c2ccc(C(F)(F)F)cc2)cc1)C(=O)Cn1c(CCc2ccc(F)cc2)nc(=O)c2sccc21 | 670 nM
6 | COc1ccc(CN(C)CCCc2ccc(NC(=O)c3cccc4c(O)c5ccccc5nc34)cc2)cc1OC | 1370 nM
7 | CCCN(CC1CC1)c1ncc(-c2ccccc2CNCc2ccccc2O)cn1 | 496 nM
8 | CN1CCc2cc(NS(=O)(=O)c3ccc(-c4ccc(Cl)s4)cc3)c(N3CCCCC3)cc2CC1 | 727 nM
9 | Cc1nc(C)c(-c2ccc(C(=O)c3ccccc3)cc2)c(O)c1Br | 778 nM
10 | O=C(CSc1ccc(Cl)cc1)NC1CCC(CN2CCC(c3c[nH]c4ccccc34)CC2)CC1 (stereo not given) | 934 nM
11 | CC(C)Sc1nc2c(c(=O)n1Cc1ccco1)C1(CCCCC1)Cc1ccccc1-2 | 251 nM
12 | N#Cc1ccc(N2CCN(Cc3ccc(-c4ccc(-c5nc6cc(C(F)(F)F)ccc6[nH]5)s4)cc3)CC2)nc1 | 814 nM
13 | COc1ccc(CNCc2ccc(-c3cccc(-c4nc5cccc(C)c5[nH]4)c3)cc2)cc1 | 130 nM
14 | CCc1c(CCNCCc2cccc(CCNCCc3ccc(OC)c(OC)c3CC)c2)ccc(OC)c1OC | 361 nM
15 | CCCCn1c(C)c(C(=O)OCC)c2cc(OC(C)=O)c(Br)cc21 | 625 nM
16 | NC(=O)c1cccc(C(=O)Nc2cccc(-c3ccc(-c4nc5ccccc5[nH]4)s3)c2)c1 | 349 nM
17 | CC=Cc1cc(Cc2c[nH]c(=N)[nH]c2=N)cc(CCC)c1OC | 783 nM
18 | CC(C)Oc1ccc2ccccc2c1CNCCCCCCNCc1c(OC(C)C)ccc2ccccc12 | 612 nM
19 | COc1ccc2ccccc2c1CCCCN1CCN(CC(c2ccc(F)cc2)N2CCC2)CC1 (stereo not given) | 759 nM
20 | Cc1[nH]c(C)c(-c2ccc(CCc3ccc(N)cc3)cc2)c(=O)c1Cl | 98.5 nM
21 | N#Cc1ccc(CN2CCC(Oc3ccc(NC(=O)c4ccccc4)cc3Cl)CC2)cc1 | 1260 nM
22 | CN1CCN(c2ccc(-c3nc4ccc(OCc5cc(Cl)cc(Cl)c5)c(C(N)=O)c4[nH]3)cc2)CC1 | 657 nM
23 | CCc1ccc(-n2cc(C(=O)c3cc(Br)ccc3O)cc(C#N)c2=O)cc1 | 797 nM
24 | C=C[C@H]1CN(CCCCCCC)CC[C@H]1CCNc1ccnc2ccc(OC)cc12 | 61.8 nM

Row | Structure (SMILES) | XC50
25 | O=C(COc1ccccc1)N(Cc1ccc(-c2ccc(CNC3Cc4ccccc4C3)cc2)cc1)C1CCNCC1 | 1020 nM
26 | O=C(Nc1ccc(F)cc1)c1ccc(C(=O)NC2CCN(CC3CCCCC3)CC2)cc1 | 544 nM
27 | CC(=O)c1ccc(NC(=O)C2c3ccccc3C(=O)N(CC(C)C)C2c2cccs2)cc1 (stereo not given) | 1320 nM
28 | COc1cccc(NC(=O)c2cc(Br)cc(N3CCN(c4ccncc4)CC3)c2)c1 | 772 nM
29 | O=C(/C=C/c1ccc(Cl)c(Cl)c1)NCCCCCN1CCCC(C(=O)Nc2ccc(Cl)c(Cl)c2)C1 (stereo not given) | 785 nM
30 | CCN(CC)CCOC(=O)c1ccc(NC(=O)c2cc(-c3ccc(C)cc3)nc3ccccc23)cc1 | 779 nM
31 | COc1ccc(CNc2nc(NCc3ccc(C(F)(F)F)cc3)c3cc(OC)c(OC)cc3n2)cc1OC | 210 nM
32 | CN(Cc1ccccc1)C1CCCN(c2cc(NC(=O)c3ccc(F)cc3)ccn2)C1 (stereo not given) | 988 nM
33 | Cc1cccc(OC2CCN(c3ncc(C(=O)NCCCN4CCCC4=O)cc3Cl)CC2)c1 | 183 nM
34 | CC(C)(CNCc1cc(Cl)cc(Cl)c1)c1nc(-c2ccnc(N)n2)c(-c2ccc(Cl)c(O)c2)[nH]1 | 1010 nM
35 | Cc1nc2nc(N)nc(N)c2c(C)c1Cc1ccc(C#N)cc1 | 542 nM
36 | O=c1cc(NCCCNCc2cc3ccc(Br)cc3s2)[nH]c2ccccc12 | 990 nM
37 | Nc1ccc2[nH]cc(C3CCN(CC4CCC(NC(=O)/C=C/c5ccccc5Cl)CC4)CC3)c2n1 (stereo not given) | 688 nM
38 | CCNc1cc(C)nc(Nc2ccc(NC(=O)c3ccccc3Cl)cc2)n1 | 1010 nM
39 | O=C(NCCNc1nc(NCCNC(=O)Nc2ccccc2)c2ccc(=O)n(-c3c(F)cccc3F)c2n1)Nc1ccccc1 | 170 nM
40 | COc1cc(C)nc2ccc(NC(=O)Nc3cccc4ccccc34)cc12 | 878 nM
41 | COc1ccc(NC(=O)c2ccc(OCCCCCCCOc3ccc(C(=O)Nc4ccc(OC)c(N5CCN(C)CC5)c4)cc3)cc2)cc1N1CCN(C)CC1 | 598 nM
42 | FC(F)(F)c1ccc(N2CCCN(Cc3cccc(-c4ccccc4CNCc4ccc5c(c4)OCO5)c3)CC2)nc1 | 1190 nM
43 | Oc1cccc(Nc2ccnc3cc(-c4ccccn4)ccc23)c1 | 744 nM
44 | Fc1ccccc1C=NN=c1cc[nH]c2ccccc12 | 894 nM
45 | Nc1nonc1-c1nc2c(-c3cccc(Cl)c3)nccc2n1CCCNC(=O)Cc1ccc(Cl)cc1 | 268 nM
46 | Cc1noc(C)c1-c1cccc(CNCc2cccc(-c3csc(-c4nc5ccccc5[nH]4)c3)c2)c1 | 263 nM
47 | O=C(Nc1ccc(Cn2ncc(N3CCCNCC3)c(Cl)c2=O)cc1)Nc1ccc(OCc2ccccc2)cc1 | 822 nM
48 | CN(C)c1ccc(-c2ccc(C(=O)NC3CCN(Cc4cccc(C(F)(F)F)c4)CC3)s2)cc1 | 985 nM

Row | Structure (SMILES) | XC50
49 | O=c1cc(NCCCNCc2cc(F)cc(C(F)(F)F)c2)[nH]c2ccccc12 | 1200 nM
50 | Oc1ccc2nc(NCCCc3ccccc3)nc(NCCc3ccccc3)c2c1 | 289 nM
51 | CC(C)COc1ccc(Cl)cc1Cc1nc(-c2nc3ccc(CN4CCCCC4)cc3[nH]2)co1 | 738 nM
52 | CC(=O)Nc1ccc(C(=O)Nc2cccc(-c3cccc(-c4nc5ccccc5[nH]4)c3)c2)cn1 | 204 nM
53 | Clc1ccc(CNc2ccnc(NCc3cccnc3N3CCCC3)n2)c(Cl)c1 | 1170 nM
54 | CN1CCN(c2ccc(-c3cc(-c4cc(F)c(F)c(F)c4)cnc3N)cc2)CC1 | 1010 nM
55 | COc1ccc(NC(=O)/C=C/c2ccccc2Cl)cc1OCCN1CCC(O)(c2ccc(Cl)c(C(F)(F)F)c2)CC1 | 637 nM
56 | COc1cccc(-c2nn(C)c3sc(C(=O)Nc4cccnc4)cc23)c1 | 948 nM
57 | CCCOC(=O)c1ccc(OCCCON2C(=N)N=C(N)NC2(C)C)cc1 | 3.2 nM
58 | CN(CCCCCNC(=O)/C=C/c1ccc(Cl)c(Cl)c1)CCCCc1c[nH]c2ccccc12 | 1080 nM
59 | O=C(Nc1ccccc1)Nc1cccc(-c2nn3c(OCCN4CCCC4)cccc3c2-c2ccncc2)c1 | 404 nM
60 | Cc1[nH]c2ccccc2c1C(=O)C(C)Sc1nnc(-c2ccccc2F)o1 (stereo not given) | 691 nM
61 | Cc1cc(=NN=Cc2ccc(Cl)cc2)c2cccc(C)c2[nH]1 | 723 nM
62 | CCOc1ccc(-c2nonc2NC(=O)c2cccc(Cl)c2)cc1OCC | 147 nM
63 | COc1ccc(CNC2Cc3ccccc3C2)cc1-c1ccc(OC)c(S(=O)(=O)NCCN2CCCC2)c1 | 773 nM
64 | Cc1cc(N)nc2ccc(-c3ccc(CCN)cc3)cc12 | 621 nM
65 | c1cc2[nH]c(CCCCCc3nc4cc(C5=N[C@@H]6CCCC[C@@H]6N5)ccc4[nH]3)nc2cc1C1=N[C@@H]2CCCC[C@@H]2N1 | 199 nM
66 | COC(=O)c1cc2cccc(NC[C@@H](C)NC[C@H](O)c3cccc(Cl)c3)c2[nH]1 | 631 nM
67 | CC(C)Cc1c(O)nc(SCCN2CCOCC2)[nH]c1=O | 1260 nM
68 | Cc1cc(N[C@@H](Cc2ccccc2)C(=O)Nc2ccccc2)nc(NCCN2CCCC2)n1 | 1810 nM
69 | N#Cc1ccc(-c2ccc(C(=O)NC3CCN(CCN4CCC(c5cn(CCO)c6ccccc56)CC4)CC3)cc2)cc1 | 758 nM
70 | CCN(CC)CCCC(C)Nc1c2cc(OC)ccc2nc2cc(Cl)c([N+](=O)[O-])cc12 (stereo not given) | 787 nM
71 | O=C(Nc1ccc(-c2ccccc2)cc1)Nc1cccc(Cn2ncc(N3CCCNCC3)c(Cl)c2=O)c1 | 225 nM
72 | CC(C)(C)c1ccc(-c2nnc(N)nc2N)cc1 | 862 nM

Row | Structure (SMILES) | XC50
73 | COc1ccc(Br)cc1/C=C/C(=O)Nc1ccc2c(c1)CCCN(C)C2 | 1560 nM
74 | COc1cc(C=CC(=O)N2CCC(CCN3CCC(c4c[nH]c5ccccc45)CC3)CC2)cc(OC)c1 | 909 nM
75 | Cn1c(NC(=O)C2CCCN(C(=O)c3ccc(O)c(-c4ccc(Cl)c(Cl)c4)c3)C2)nc2ccccc21 (stereo not given) | 751 nM
76 | CCN(CCC1(c2ccc(Cl)c(Cl)c2)CN(C(=O)c2cc(OC)c(OC)c(OC)c2)CCO1)C1CC2c3ccccc3CC21 (stereo not given) | 426 nM
77 | CN(C)CCNCc1ccc(-c2cccc(-c3nc4ccccc4[nH]3)c2)cc1 | 717 nM
78 | Cc1cccc2nc(-c3cccc(-c4cccc(NC(=O)c5cccnc5Cl)c4)c3)[nH]c12 | 707 nM
79 | Cc1ccc2c(C3=CCN(CCCCC4(C)C(=O)Nc5ccccc54)CC3)c(C)[nH]c2c1 (stereo not given) | 374 nM
80 | CC(C)CNc1nc(N)nc2ccc3c(ccn3CC(C)C)c12 | 649 nM
81 | O=c1cc(NCCCNCc2cc(Cl)cc(Cl)c2OCc2ccccc2)[nH]c2ccccc12 | 1030 nM
82 | COc1ccc(CNCc2ccc(-c3ccc(-c4nc5ccccc5[nH]4)cc3)cc2)cc1 | 241 nM
83 | CCCCCn1c(Sc2ccc(C#N)c([N+](=O)[O-])c2)nnc1-c1cccs1 | 777 nM
84 | Cc1ccc(F)cc1S(=O)(=O)Nc1cccc(CCN2CCC(N3CCCCC3)CC2)c1 | 1120 nM
85 | COc1cccc(C(NC(=O)c2ccccc2)c2ccc3cccnc3c2O)c1 (stereo not given) | 1080 nM
86 | CC(=O)Nc1cccc(Nc2nccc(-c3c(-c4cccc(NC(=O)c5c(F)cccc5F)c4)nn4ncccc34)n2)c1 | 184 nM
87 | O=C(Nc1cc(=O)[nH]c2nc(-c3ccccc3)nn12)C1CCCCC1 | 416 nM
88 | CC(C)C(C(=O)n1cc2c(ccc3nc(N)nc(N)c32)n1)C(C)C | 790 nM
89 | Cc1ccc(C(O)CNc2ccnc(Nc3cccc(-c4csc(C)n4)c3)n2)cc1 (stereo not given) | 826 nM
90 | O=S(=O)(c1cccc(Cl)c1F)N(CCC(O)(C(F)(F)F)C(F)(F)F)Cc1cccc(O)c1 | 918 nM
91 | O=c1cc(NCC2(CNCc3cn(Cc4ccccc4)c4ccccc34)CCCCC2)[nH]c2ccccc12 | 684 nM
92 | COc1ccccc1NC(=O)Nc1cccc(-c2cccc(-c3nc4cccc(C)c4[nH]3)c2)c1 | 95.7 nM
93 | COc1ccc2nccc([C@@H](O)CN3CCC(NCCOc4c(C)cccc4F)CC3)c2c1 | 347 nM
94 | CC1Cc2ccccc2N1S(=O)(=O)c1cccc(C(=O)Nc2nc(-c3ccccn3)cs2)c1 (stereo not given) | 1320 nM
95 | O=C(N[C@H]1CCN(Cc2ccc(OCCCN3CCCCC3)cc2)C1)c1ccc(Cl)c(Cl)c1 | 781 nM
